Data reported in patent US9645138B2, “Method to evaluate the tissue targeting of a molecule of interest” (IMABIOTECH, priority 2013, dated 2017).
Read-outs that look alike come from different tables or passages of the source.

Legend:
[1] = system: receptor in the brain (GABA); experiment: Receptor occupancy / adsorption by MALDI imaging of rat brain sections, Diazepam dosed and Lorazepam washing (Example 2)
Excerpt: FIG. 7 explains the methodology of adsorption of a molecule on tissue using the example of the receptor occupancy process. In this way, it is possible to measure the occupancy efficiency of the receptor by the drug (agonist) administered to the animal compared with an antagonist molecule. In this example, all the steps of the methodology are described: the dosed tissue analysis alone, the washing step with the antagonist solution of the control tissue and the combined dosed/washing analysis of the administrated sample. No negative marker is required for this kind of experiment.
Of course, in an almost identical manner an imaging device other that MALDI can be used, such as the following: SIMS, DESI, DIOS, ICP, MALDI microscope, SNOM, SMALDI, LA-ICP, ESI (liquid extraction on tissue), MILDI, JEDI, ELDI, etc.
Wild-type rats weighing 35-40 g were used. […] Animals (dosed and control rats) were sacrificed by CO2 asphyxiation. […] Finally, brains were stored at −80° C.
Brains (control and dosed tissues) were sectioned into 10 μm thick layers (coronal section) using a Microm HM560 (Thermo Scientific, France) cooled at −20° C.
The antagonist solution was prepared from a stock solution of Lorazepam at 1 mg/ml in methanol (100%). The final concentration of the washing solution was fixed at 100 pmol/μL in methanol/water+0.1% TFA (7:3). The concentration of the antagonist is a crucial factor for receptor occupancy that improves the binding capacity of the molecule. 20 μL of the solution was spotted on the tissue section (one dosed and one control sample) and then incubated for 1 hour at 37° C. in a box inside an INCU-Line incubator (VWR, France). A dosed brain section without washing was also put in the incubator.
After incubation, tissues were washed using 2 steps to remove unbound molecules from the tissue, firstly with a solution of methanol/water+0.1% TFA (7:3) corresponding to the antagonist washing solution. Secondly, the tissue is washed using only water solution (10 mL) and then placed into a desiccator for 15 min.
A DHB matrix was used for the analysis of all brain tissue sections with or without washing with the Lorazepam solution. This matrix was prepared at a concentration of 40 mg/ml in methanol/water+0.1% TFA (1:1, v/v).
The data was generated in positive reflectron mode.
The F2 factor allows comparison of the fine localization of the agonist and the antagonist in the white matter region and gives information about their similarity or dissimilarity.

[2] = Swiss, mouse, in vivo
Protocol: (§1) The target tissue, hereinafter “tissue 1”, comprises the medulla and renal calices.
(§2) The non-target adjacent tissue, hereinafter “tissue 2”, is also considered and comprises the renal cortex region.
(§3) Wild-type mice of Swiss strain weighing 25-40 g from Charles River Laboratories were used. […] Mice were sacrificed by CO2 asphyxiation. Kidneys were then removed and plunged into 100% isopentane solution cooled by liquid nitrogen for rapid freezing. Finally, kidneys were stored at −80° C.
(§4) Kidneys were sectioned into 10 μm thick layers (sagittal sections) using a Microm HM560 (Thermo Scientific, France) cooled at −21° C. The sections were then deposited on conductive ITO (indium tin oxide) slides (Delta Technology, USA). Finally, the sections were kept in the cryostat chamber 30 min for cryodrying and then placed in a desiccator for 30 minutes.
(§5) A CHCA matrix was used for the analysis of all kidney tissue sections. This matrix was prepared at a concentration of 10 mg/ml in acetonitrile/water+0.1% TFA (6:1, v/v). The matrix solution was deposited using the SunCollect spraying system (SunChrom, Germany) following optimized protocol.
(§6) The images were obtained using an AutoFlex Speed MALDI-TOF mass spectrometer (Bruker Daltonics, Bremen, Germany) equipped with a Smartbeam II laser. The data was generated in positive reflectron mode. A total of 500 spectra were obtained for each spot with a 1000 Hz laser frequency and a 200×200 μm^2 image spatial resolution on a mass range of 100 to 1000 Da. The FlexImaging version 4.0 software was used to reconstruct the images and Quantinetix 1.6 software (ImaBiotech, Loos, France) permitted the extraction of spectral intensities of ions corresponding to each studied molecule.
(§7) The imaging data treatment software Quantinetix is used to extract relative intensities of each ion of interest and control compound for each position (or voxel) within each drawn region.
(§8) The next step is to normalize the whole dataset in order to compare them. The highest intensity related to each ion is used to normalize the intensities per position. One calculates mean normalized intensities for each ion and tissue type.
(§9) By definition, one considers that positive control compound factor F1 is equal to 100% whereas negative control compound factor F1 is equal to 0%.
(§10) F2 factor calculation is performed using normalized intensity values from the previous F1 factor evaluation. Position per position, one assesses the standard deviations of intensity values of the molecule of interest and the negative control with positive control one at the level of the target tissue (T1).
(§11) By definition, the positive control compound's factor F2 is considered equal to 100% whereas the negative control compound's factor F2 is equal to 0%.

[3] = MALDI mass spectrometry imaging of mouse kidney sections after oral co-administration (Example 1)
Protocol: as §1, §2, §3, §4, §5, §6, §7, §8, §9, §10, §11

[4] = rat brain targeted area T1, positive marker Lorazepam = 100%
[5] = mouse kidney target tissue T1, positive control 100% and negative control 0% by definition

**Q.** Which results are given for `O=C1Nc2ccc(Cl)cc2C(c2ccccc2Cl)=NC1O` (centres unmarked) [Lorazepam]?
**A.** localization on the brain section (MSI) ([1]; control tissue section washed with the Lorazepam solution (100 pmol/μL, 1 hour at 37° C.)): especially in the white matter; F1 (%) [1, 4]: 100%; F2 (%) [1, 4]: 100%; Normalized mean intensity/Tissue T1 ([1]; rat brain, targeted area T1 (white matter, receptor binding site), Diazepam 15 mg/kg i.v., Lorazepam washing 100 pmol/μL): 0.821; Normalized mean intensity/Tissue T2 ([1]; rat brain, untargeted area T2 (rest of the brain), Diazepam 15 mg/kg i.v., Lorazepam washing 100 pmol/μL): 0.21; % Tar (targeting coefficient) ([1]; target area (Receptor) T1, rat brain): 100%

**Q.** Which results are given for `CN1C(=O)CC(C)(c2ccccc2)C1=O` (centres unmarked) [Methsuximide]?
**A.** % Tg (global targeting coefficient) [2]: 0%; F1 (%) [2]: 0%; F2 (%) [2]: 0%; Mean normalized intensity per tissue T1 ([2]; po, 8 mg/kg): 0.062; Mean normalized intensity per tissue T2 ([2]; po, 8 mg/kg): 0.241

**Q.** With `Cc1cc2c(s1)Nc1ccccc1N=C2N1CCN(C)CC1` [Olanzapine] as the compound, how does the “% Tg (global targeting coefficient)” value ([3]; mouse kidney target tissue T1) read?
**A.** 40%

**Q.** What about the “F1 (%)” value [3, 5] of the same compound?
**A.** 52.2%

**Q.** What about the “distribution in the kidney section (MS image, FIG. 6)” value ([3]; mouse kidney, oral 8 mg/kg) of the same compound?
**A.** mainly localized in the right half section of the medulla

**Q.** What about the “affinity / targeting behavior for the medulla region” value ([3]; mouse kidney, summary of Example 1) of the same compound?
**A.** mean affinity

**Q.** Which “% Tg (global targeting coefficient)” value ([3]; mouse kidney target tissue T1) does the source give for `CC[C@@H]([C@H](C)O)n1ncn(-c2ccc(N3CCN(c4ccc(OC[C@@H]5CO[C@@](Cn6cncn6)(c6ccc(F)cc6F)C5)cc4)CC3)cc2)c1=O` [Posaconazole] here?
**A.** 100%

**Q.** What about the “F1 (%)” value [3, 5] of the same compound?
**A.** 100%

**Q.** And the “F2 (%)” value [3, 5]?
**A.** 100%

**Q.** And the “Mean normalized intensity per tissue T2” value ([3]; mouse kidney, non target tissue T2 (renal cortex), oral 8 mg/kg, MALDI imaging)?
**A.** 0.055

**Q.** And the “Mean normalized intensity per tissue T1” value ([3]; mouse kidney, target tissue T1 (medulla), oral 8 mg/kg, MALDI imaging)?
**A.** 0.281
